According to ChEMBL document CHEMBL3507680, “University of Dundee, Gates Library screen for HepG2 cell viability”:

Assay: Human HepG2 cell viability assay in 384 well format
Type: toxicity, cell-based
Set-up: dose 125 nL, time 70.5 hour; concentration not given beside the values
Conditions: HepG2 cells, read-out: Inhibition

Structure (SMILES) | cytotoxicity at 70.5 h [%]
COC(=O)[C@@H]1Cc2ncn(C)c2CN1S(=O)(=O)c1ccc(Cl)cc1 | 10.2
CC(=O)N1CC[C@H]2CC(=O)N(C3CC3)CC[C@H]2C1 | 14.2
COc1ccc(CN2C[C@H](O)C[C@H]2c2nc(-c3ccccc3)no2)cc1 | 9.25
CCN(CC)CC[C@H]1CN(C(=O)C2CCC2)CC[C@H]1CC(=O)O | 5.37
Cc1ccc(-c2noc([C@@H]3C[C@H](NC(=O)CC(C)(C)C)CN3C)n2)cc1 | -2
Cc1noc([C@@H]2C[C@H](NC(=O)Nc3ccccc3)CN2C)n1 | -1.94
CC(C)NC(=O)C[C@@H]1CCNC[C@@H]1Cc1cc(-c2ccccn2)on1 | -16.5
COC(=O)[C@@H]1CN(S(=O)(=O)c2ccccc2)CCN1S(C)(=O)=O | -7.6
Cc1nn(-c2ccccn2)c(C)c1[C@@H]1C=C[C@@H](NC(=O)CCC(=O)O)C1 | -6.4
N#Cc1ccc(CN2C[C@@H]3OCC(=O)N[C@@H]3C2)cc1 | -5.15
c1cc(-c2noc([C@@H]3Cc4nc[nH]c4CN3)n2)ccn1 | 1.06
CC(C)N1C[C@@H](F)[C@@H](OCc2nc3ncccc3[nH]2)C1 | -0.523
Oc1cccc(-c2cc(CC3(N(CC4CC4)CC4CC4)COC3)no2)c1 | -6.61
CC1(C)[C@H](Cc2cc(CO)on2)C[C@@H]1N(CC1CC1)CC1CC1 | 5.68
COC(=O)[C@@H]1Cc2ncn(C)c2CN1S(=O)(=O)c1ccc(C)cc1 | -8.32
CC(C)N1C[C@@H]2OCC(=O)N(Cc3ccccc3)[C@@H]2C1 | -10.2
COc1ccc(-c2c[nH]c([C@@H]3COCCN3)n2)cc1 | 1.65
NCCn1cc(C(=O)N2CCCCCC2c2cccc(F)c2)nn1 (centres undefined) | 13.5
CCn1c(C)nnc1SCCNc1cc(OC)ncn1 | -18.6
Cc1cccnc1CN1CCN(C(=O)c2cc(Cl)c[nH]c2=O)CC1 | 8.42
Cc1ccc(F)c(OC2(C(=O)O)CCN(C(=O)c3ccccc3)CC2)c1 | -6.1
Cc1ccc(-c2cc(C(=O)N(C)Cc3noc4c3CCCC4)[nH]n2)s1 | 21.6

Structure (SMILES) | cytotoxicity at 70.5 h [%]
COc1cc(-c2cccc3c2OC(CN)C3)cc(OC)c1OC (centres undefined) | -1.4
O=C(N[C@H]1CN(c2ccncc2)C[C@@H]1C1CC1)C1CCOCC1 | -3.12
CSc1ncc(C(=O)NCc2cc3n(n2)CCCN(CC(C)C)C3)cn1 | 5.43
O=C1OCCN1CC(=O)N1C[C@H]2CC[C@@H]1CN(C(=O)c1ccccc1)C2 | 2.12
CS(=O)(=O)c1ccc(CN2CCCCC2c2ccc(F)cc2)cc1 (centres undefined) | 17.4
COc1ccc(C)cc1-n1cnnc1C1CC(=O)N(C)C1 (centres undefined) | -4.76
CC(Cc1cncs1)Nc1ncnc2cccc(F)c12 (centres undefined) | 1.5
Cn1cnnc1CN1CCC2(CCC(=O)N(Cc3ccccc3)C2)CC1 | -4.83
Cc1cnc(NCc2csc(C(C)C)n2)nc1-c1cnn(C)c1 | -14.9
O=C(O)C1(O)CCN(c2ccnc3c(C(F)(F)F)cccc23)CC1 | -25.6
OC1(CNCCc2csc(-c3ncccn3)n2)CCNC1 (centres undefined) | -14.5
Nc1cc(O)nc(CCNC(=O)CC[C@@H]2CCCN3CCCC[C@H]23)n1 | -4.87
CCc1nc(N2CCCC(CCCOC)(C(=O)O)C2)ncc1C (centres undefined) | -10.1
CC(C)c1ccn(C2(C(=O)O)CCN(c3ccncc3F)CC2)n1 | -4.07
CC(C)SCCNC(=O)c1cccc2ccnn12 | -9.35
Cc1[nH]ccc1C(=O)N[C@H]1CN(S(C)(=O)=O)C[C@@H]1C1CC1 | -5.26
O=C1CCC2(CCN(Cc3ncccn3)CC2)CN1CCCO | -8.14
CCNc1ncc(C(=O)NCCCc2ccncc2)cn1 | -3.04
N#Cc1cccc(NC2CC(=O)N(C3Cc4ccccc4C3)C2)n1 (centres undefined) | 19
Cc1cnccc1CN(C)C1CCN(c2ncnc3[nH]cnc23)CC1 | -6.65
CC(=O)N1CCCC(C(=O)N2CCN(c3cnn(C)c(=O)c3)CC2)C1 (centres undefined) | 9.66
COCCN1CCC(CN(C)c2ncnc3c2c(C)nn3C)C1 (centres undefined) | 6.13

Structure (SMILES) | cytotoxicity at 70.5 h [%]
O=C(Nc1nncs1)N1CCCN(C2CCCCC2)CC1 | -12.6
CN1CCN(c2cc(CCNC(=O)C3CCC3)nc(C3CC3)n2)CC1 | -6.65
Cn1nc(C2CN(C(=O)c3cscn3)C2)c2nccnc21 | -3.87
COc1cccc(-c2nccnc2C2CCN(C(C)=O)CC2)c1 | -8.61
Cc1cncc(C2CCCN(C(=O)c3scnc3C)C2)n1 (centres undefined) | -3.5
CN(C(=O)c1ccccn1)c1nc2c(s1)CCc1c-2cnn1C | 8.04
Cc1cccc(CN2CCc3c(nc(N4CCCCC4C)[nH]c3=O)C2)n1 (centres undefined) | -4.07
Cc1cccc(CN2CCc3c(nc(N4CCC(C)CC4)[nH]c3=O)C2)n1 | -9.37
CC1CCCCN1c1nc2c(c(=O)[nH]1)CCN(Cc1cccnc1)C2 (centres undefined) | -3.39
CCC(=O)N1CCc2nc3cc(OC)c(OC)cc3c(=O)n2CC1 | 29.2
CCN1CCN(c2ncc(-c3cc(C)no3)c(-c3ccc(C)s3)n2)CC1 | -27.4
O=C(O)CCc1cccc(C2CCCN2Cc2ccc(F)c(F)c2)n1 (centres undefined) | -6.64
Cc1ncccc1Oc1nccnc1C1CCN(C(C)C)CC1 | -2.72
Cn1nc(C2CCCN(C(=O)CO)C2)cc1O (centres undefined) | 19.8
CC(=O)N1CCNCC1c1cccc(C(=O)N(C)C)c1 (centres undefined) | -8.36
O=C(c1n[nH]c(=O)c2ccccc12)N1CCCCC1c1ccn[nH]1 (centres undefined) | -8.63
CNC(=O)C1(c2cnccn2)CCCN1C(=O)c1ccn(C)n1 (centres undefined) | -1.48
CC(C)C(=O)N1CCN(Cc2cc(-c3ccncc3)nn2C)CC1 | 31.9
CCC(=O)N1CCN(Cc2cc(-c3ccncc3)nn2C)CC1 | 5.2
CN1CCCC[C@@H]2[C@H]1[C@@H](c1ccccc1)CCN2C(=O)c1cnccn1 | 1.76
Cc1nc(O)c2nnn(C[C@H]3CCCN3C(=O)c3cccc(F)c3)c2n1 | -7.83
CN1CCCC(c2n[nH]c3ncccc23)C1 (centres undefined) | -11.4

Structure (SMILES) | cytotoxicity at 70.5 h [%]
CCc1c(C)nc2cc(C3CCN(Cc4ccccc4F)C3)nn2c1O (centres undefined) | -2.56
O=C(c1ccccn1)N1CCc2nc(-c3cnccn3)nc(O)c2C1 | -3.62
O=C(Cc1ccccn1)N1CCc2nc(-c3cnccn3)nc(O)c2C1 | -4.01
COc1ccc(-c2cc(C3CCCCCN3S(=O)(=O)N(C)C)on2)cc1 (centres undefined) | 8.12
Cc1cc(O)nc(C2CCCN(Cc3ccncc3)C2)n1 (centres undefined) | -0.0773
c1cnc2c(C3CCN(Cc4ccsc4)CC3)n[nH]c2n1 | 42.8
O=C1NCC2(CCCN(CCc3ccccc3)C2)Oc2ccccc21 (centres undefined) | 21.7
Cc1csc2nc3n(c(=O)c12)CCN(C(=O)c1ccncc1)CC3 | -7.78
Cc1ccc(=O)n(CC2(O)CCN(Cc3ccsc3)CC2)n1 | -10.6
CS(=O)(=O)N1CCC(O)(Cn2c(C3CC3)nc3ccccc3c2=O)CC1 | -1.88
O=C(Cn1cccnc1=O)NC(Cc1cccs1)c1ccccn1 (centres undefined) | -13.9
CCN1CCN(c2ncc(-c3cc(C)no3)c(-c3ccoc3C)n2)CC1 | -2.3
Cc1nccc(CN2CCC(c3nnsc3S(C)(=O)=O)CC2)n1 | -21.3
Cc1cc(C)c2cc(CNCc3ccccc3)c3nn(C)c(=O)n3c2c1 | 3.71
CCCN(C(=O)c1ccccn1)c1nc2c(s1)CCc1c-2cnn1C | 3.64
c1cc(NC2CC3(CCN(Cc4cc[nH]n4)C3)C2)ncn1 (centres undefined) | -16.2
CN(c1ccncn1)C1CC2(CCN(C(=O)CCc3cccs3)C2)C1 (centres undefined) | -10.3
CN(c1ccncn1)C1CC2(CCN(C(=O)c3cccs3)C2)C1 (centres undefined) | -16.4
Cc1ncccc1O[C@H]1CCN(C(=O)c2cccs2)CC[C@@H]1O | -14.1
CN(C(=O)C1CCCCC1)[C@@H]1CCC[C@@H](N2CCOCC2)[C@@H]1O | -11.9
O=C(c1ccc(F)cc1F)N1C[C@@H](O)[C@H](N2CCOCC2)C1 | -2.76
NCc1cn(-c2ccccc2C(=O)NCc2ccccc2)cn1 | -18.9

Structure (SMILES) | cytotoxicity at 70.5 h [%]
Cc1nc(C(=O)N2CCC(Cc3cnc4[nH]ccc4c3)C2)co1 (centres undefined) | 18.9
COc1cccc(OCC2CCCN(C(C)=O)C2)c1 (centres undefined) | -18.9
CC(C)c1nccn1-c1cccc(C2CCCN(C3CCCC3)C2)n1 (centres undefined) | -12.4
COCCN1CCCC1c1nccnc1Nc1nc(C)cs1 (centres undefined) | -21.9
Cc1ncncc1C(=O)Nc1cnn(CC(=O)NC2CCCC2)c1 | -19.5
Cc1ncccc1O[C@H]1CCN(C(=O)Cc2cccs2)CC[C@@H]1O | -7.99
Cc1cn[nH]c1C1CCCCN1C(=O)CCN1CCCCCC1 (centres undefined) | -36.7
Cc1cc2c(=O)n3c(nc2s1)CCN(Cc1cnc(C(C)C)nc1)CC3 | -14.8
Cc1cc2cc(C(=O)N3CC[C@H](O)[C@]4(CCCO4)C3)ccc2o1 | -18.1
CC(C)c1nccn1-c1cccc(C2CCCN2S(=O)(=O)N(C)C)n1 (centres undefined) | 0.791
Cc1c(C2CCCN(C(=O)Cc3ccccn3)C2)n2c(nc1=O)CCC2 (centres undefined) | 0.807
O=S(=O)(N1CCCCC1)N1CCc2nc(C3CCNCC3)ncc2C1 | -13.5
OC[C@H]1CC[C@]2(CC1)CN(Cc1ccccc1F)Cc1ccccc1O2 | -3.44
Cc1ncc(CN2Cc3ccccc3O[C@]3(CC[C@H](CO)CC3)C2)cn1 | -2.89
Cc1cc(-c2cnn(CCNC(=O)c3cccnc3)c2C2CC2)on1 | -16.3
CCOc1ccccc1C(=O)N1CCCC1c1ncc2c(n1)CCNC2 (centres undefined) | 22.9
Cc1nc2cc(C3CCN(Cc4cccc(F)c4F)C3)nn2c(O)c1C (centres undefined) | -20.4
COc1cccc(CN2CCC(c3cc(O)nc(C)n3)C2)c1 (centres undefined) | -3.89
CC1(C)CC(N(Cc2ccccc2)Cc2cccnc2)CC(C)(C)N1 | 30.7
Cc1cc(C)nc(Nc2cccc(C3CCCN(C)C3)n2)n1 (centres undefined) | 0.625
O=C(COc1ccccc1)N1C[C@@H](O)[C@H](N2CCCC2)C1 | -12.1
